Test results taken from paper PMC9203748, “Metabolism and antioxidant activity of SlGSTD1 in Spodoptera litura as a detoxification enzyme to pyrethroids” (Scientific Reports, 2022).
Read-outs that look alike come from different tables or passages of the source.

Columns and labels:
SlGSTD1 [1] = target: T1, SlGSTD1 (Spodoptera litura, UniProt A0A9J7IUS4); experiment: inhibition of GSH-CDNB conjugation, A340; format: biochemical
T1 construct: gene LOC111355915
T1 sequence (A0A9J7IUS4 1-221): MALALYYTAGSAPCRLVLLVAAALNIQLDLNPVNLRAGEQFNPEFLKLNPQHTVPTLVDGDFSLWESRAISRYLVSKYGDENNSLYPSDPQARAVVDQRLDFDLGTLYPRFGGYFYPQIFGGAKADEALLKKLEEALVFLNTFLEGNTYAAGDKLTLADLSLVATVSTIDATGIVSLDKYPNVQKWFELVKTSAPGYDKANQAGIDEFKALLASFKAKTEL

SlGSTD1 [2] = target: T1, SlGSTD1; experiment: GSH conjugation, A340, Michaelis-Menten fit; format: biochemical; settings: GSH 30 μL of 100 μmol mL^−1 in about 1.1 mL; PBS 0.1 mol L^−1 pH 7.0

| SMILES | IC50 (SlGSTD1 [1]) | other results |
| --- | --- | --- |
| CC1(C)C(/C=C(\Cl)C(F)(F)F)C1C(=O)OC(C#N)c1cccc(Oc2ccccc2)c1 (centres unmarked) [cyhalothrin] | 124 ± 10.3 µM |  |
| CC(C)C(C(=O)OC(C#N)c1cccc(Oc2ccccc2)c1)c1ccc(Cl)cc1 (centres unmarked) [fenvalerate] | 21.6 ± 3.2 µM |  |
| O=[N+]([O-])c1ccc(Cl)c([N+](=O)[O-])c1 [CDNB] |  | Km (SlGSTD1 [2]): 1680 ± 110 µM |
| CCOC(=O)/C=C\C(=O)OCC [DEM, reference compound] |  | IC50 (SlGSTD1 [1]; read-out: IC50): 2.1 ± 0.3 µM |
| CCOP(=S)(OCC)Oc1nc(Cl)c(Cl)cc1Cl [chlorpyrifos] | 170 ± 15.2 µM |  |
